In patent US12599672B2, “KRAS proteolysis targeting chimeras” (PAQ Therapeutics Inc., priority 2023, dated 2026):

How the values were obtained:
Type in all cases: cell-based
KRAS G12D = biological target: T1, KRAS G12D (Homo sapiens, UniProt P01116, G12D); experiment: KRAS G12D HiBit assay; details: AsPc-1-KRAS (G12D)-HiBit-KI cell, compound treatment for 24 hours; for DC50: absolute DC50
T1 construct: AsPc-1-KRAS (G12D)-HiBit-KI cell (Pharmaron); host or cells: AsPc-1-KRAS (G12D)-HiBit-KI cells (HiBiT knock-in at the endogenous KRAS locus)
Method in brief: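 HiBiT luminescence, detected by adding lytic buffer, substrate and LgBiT protein, served as the KRAS G12D read-out. Compounds, serially diluted 3-fold over 10 points from 0.3 mM DMSO stock, were on cells for 24 h; percent inhibition normalized to cells given 0.1% DMSO only.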

KRAS = biological target: T2, KRAS (Homo sapiens, UniProt P01116); experiment: KRASamp MSD assay; details: KE39 (KRAS amplified) cells, treated with test compounds for 24 hr, MSD readout of KRAS degradation
T2 construct: endogenous in cells; host or cells: KE39 (KRAS amplified) cells
Method in brief: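 Degradation DC50 derived by curve fitting, with KRAS levels quantified by MSD electrochemiluminescence (capture/detection antibodies, recombinant WT KRAS standard). Lysates prepared from KE39 cells (KRAS amplified) exposed to test compounds for 24 hr.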

KRAS G12V = biological target: T3, KRAS G12V (Homo sapiens, UniProt P01116, G12V); experiment: KRAS G12V HiBit assay; details: SW620-KRAS (G12V)-HiBit-KI cells, compound treatment for 24 hours, class symbols
T3 construct: SW620-KRAS (G12V)-HiBit-KI cell (Pharmaron); host or cells: SW620-KRAS (G12V)-HiBit-KI cells (HiBiT knock-in at the endogenous KRAS locus)
Method in brief: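 Luminescence from lytic Nano-Glo HiBiT detection with LgBiT read KRAS G12V levels after 24 h compound exposure. Dilutions were 10-point, 3-fold, from a 0.3 mM DMSO stock. Degradation activity was normalised to cells given 0.1% DMSO alone.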

[1] = numeric bounds given in place of class symbols

T2 sequence (P01116 1-188 isoform P01116-2): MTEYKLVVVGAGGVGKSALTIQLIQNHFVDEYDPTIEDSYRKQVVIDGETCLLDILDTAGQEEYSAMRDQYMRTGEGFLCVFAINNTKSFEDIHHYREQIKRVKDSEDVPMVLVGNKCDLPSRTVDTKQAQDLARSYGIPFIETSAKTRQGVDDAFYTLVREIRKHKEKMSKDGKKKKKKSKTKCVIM
T1 sequence (P01116 1-188 isoform P01116-2 G12D): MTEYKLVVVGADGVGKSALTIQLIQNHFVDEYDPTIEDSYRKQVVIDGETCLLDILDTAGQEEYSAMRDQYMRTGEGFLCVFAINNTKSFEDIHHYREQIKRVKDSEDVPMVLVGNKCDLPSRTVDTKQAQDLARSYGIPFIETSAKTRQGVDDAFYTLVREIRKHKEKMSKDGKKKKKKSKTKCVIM
T3 sequence (P01116 1-188 isoform P01116-2 G12V): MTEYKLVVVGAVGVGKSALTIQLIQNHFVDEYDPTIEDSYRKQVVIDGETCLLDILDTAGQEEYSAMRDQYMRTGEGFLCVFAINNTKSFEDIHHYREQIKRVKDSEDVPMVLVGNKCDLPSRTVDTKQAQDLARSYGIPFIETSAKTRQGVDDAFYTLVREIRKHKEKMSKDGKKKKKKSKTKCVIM

Structure (SMILES) | DC50 (KRAS G12D; [1]) [nM] | DC50 (KRAS) [nM] | DC50 (KRAS G12V) [nM] | DC50 (KRAS G12D; class symbols) [nM] | Dmax (KRAS G12D; class symbols) [%]
C#Cc1c(F)ccc2cc(O)cc(-c3ncc4c(N5CCC[C@@](C)(O)C5)nc(OC[C@@]56CCCN5[C@H](COC(=O)N5CCCC7(C5)CN(C5CCN(c8ccc9c(c8)n(C)c(=O)n9C8CCC(=O)NC8=O)CC5)C7)CC6)nc4c3F)c12 (stereo partly drawn) [Compound 328, ((3S,7aS)-7a-(((7-(8-ethynyl-7-fluoro-3-hydroxynaphthalen-1-yl)-8-fluoro-4-((R)-3-hydroxy-3-methylpiperidin-1-yl)pyrido[4,3-d]pyrimidin-2-yl)oxy)methyl)hexahydro-1H-pyrrolizin-3-yl)methyl 2-(1-(1-(2,6-dioxopiperidin-3-yl)-3-methyl-2-oxo-2,3-dihydro-1H-benzo[d]imidazol-5-yl)piperidin-4-yl)-2,6-diazaspiro[3.5]nonane-6-carboxylate] | > 100 | ≥ 10 | > 100 |  | 
CCc1c(F)ccc2cc(O)cc(-c3ncc4c(N5CCC[C@](C)(N)C5)nc(OC[C@@]56CCCN5[C@H](COC(=O)N5CCC7(CC5)CC(N5CCC(c8ccc9c(c8)n(C)c(=O)n9C8CCC(=O)NC8=O)CC5)C7)CC6)nc4c3F)c12 (stereo partly drawn) [Compound 478, ((3S,7aS)-7a-(((4-((S)-3-amino-3-methylpiperidin-1-yl)-7-(8-ethyl-7-fluoro-3-hydroxynaphthalen-1-yl)-8-fluoropyrido[4,3-d]pyrimidin-2-yl)oxy)methyl)hexahydro-1H-pyrrolizin-3-yl)methyl 2-(4-(1-(2,6-dioxopiperidin-3-yl)-3-methyl-2-oxo-2,3-dihydro-1H-benzo[d]imidazol-5-yl)piperidin-1-yl)-7-azaspiro[3.5]nonane-7-carboxylate] |  | < 1 | < 10 | < 100 | 
CCc1c(F)ccc2cc(O)cc(-c3ncc4c(N5CCC[C@@](C)(O)C5)nc(OC[C@@]56CCCN5[C@H](COC(=O)N5CCC(C7(N8CCC(c9ccc%10c(c9)n(C)c(=O)n%10C9CCC(=O)NC9=O)CC8)CC7)CC5)CC6)nc4c3F)c12 (stereo partly drawn) [Compound 399, ((3S,7aS)-7a-(((7-(8-Ethyl-7-fluoro-3-hydroxynaphthalen-1-yl)-8-fluoro-4-((R)-3-hydroxy-3-methylpiperidin-1-yl)pyrido[4,3-d]pyrimidin-2-yl)oxy)methyl)hexahydro-1H-pyrrolizin-3-yl)methyl 4-(1-(4-(1-(2,6-dioxopiperidin-3-yl)-3-methyl-2-oxo-2,3-dihydro-1H-benzo[d]imidazol-5-yl)piperidin-1-yl)cyclopropyl) piperidine-1-carboxylate] |  | < 1 | < 10 | < 100 | 
C#Cc1c(F)ccc2cc(O)cc(-c3ncc4c(N5CCC[C@@](C)(O)C5)nc(OC[C@@]56CCCN5[C@H](COC(=O)N5CCC7(CCC(N8CCC(c9ccc%10c(c9)n(C)c(=O)n%10C9CCC(=O)NC9=O)CC8)CC7)CC5)CC6)nc4c3F)c12 (stereo partly drawn) [Compound 413, ((3S,7aS)-7a-(((7-(8-ethynyl-7-fluoro-3-hydroxynaphthalen-1-yl)-8-fluoro-4-((R)-3-hydroxy-3-methylpiperidin-1-yl)pyrido[4,3-d]pyrimidin-2-yl)oxy)methyl)hexahydro-1H-pyrrolizin-3-yl)methyl 9-(4-(1-(2,6-dioxopiperidin-3-yl)-3-methyl-2-oxo-2,3-dihydro-1H-benzo[d]imidazol-5-yl)piperidin-1-yl)-3-azaspiro[5.5]undecane-3-carboxylate] |  | < 1 | < 10 | < 100 | 
CCc1c(F)ccc2cc(O)cc(-c3ncc4c(N5CCCC5)nc(OC[C@@]56CCCN5[C@H](COC(=O)N5CCC7(CC5)CC(N5CCC(c8ccc9c(c8)n(C)c(=O)n9C8CCC(=O)NC8=O)CC5)C7)CC6)nc4c3F)c12 (stereo partly drawn) [Compound 348, ((3S,7aS)-7a-(((7-(8-ethyl-7-fluoro-3-hydroxynaphthalen-1-yl)-8-fluoro-4-(pyrrolidin-1-yl)pyrido[4,3-d]pyrimidin-2-yl)oxy)methyl)hexahydro-1H-pyrrolizin-3-yl)methyl 2-(4-(1-(2,6-dioxopiperidin-3-yl)-3-methyl-2-oxo-2,3-dihydro-1H-benzo[d]imidazol-5-yl)piperidin-1-yl)-7-azaspiro[3.5]nonane-7-carboxylate] | > 100 | ≥ 10 | > 100 |  | 
CCc1c(F)ccc2cc(O)cc(-c3ncc4c(N5CCC[C@@](C)(O)C5)nc(OC[C@@]56CCCN5[C@H](COC(=O)c5ccc(CN7CCC(c8ccc9c(c8)n(C)c(=O)n9C8CCC(=O)NC8=O)CC7)cc5)CC6)nc4c3F)c12 (stereo partly shown) [Compound 154] |  | < 1 | < 10 | < 100 | 
C#Cc1c(F)ccc2cccc(-c3ncc4c(N5CCC[C@@](C)(O)C5)nc(OCC5(CN6CC7(C6)CN(c6ccc8c(c6)n(C)c(=O)n8C6CCC(=O)NC6=O)C7)CC5)nc4c3F)c12 (stereo partly shown) [Compound 31] |  | ≥ 10 | > 100 | > 300 | 
C#Cc1c(F)ccc2cc(O)cc(-c3ncc4c(N5CCCCC5)nc(OCC5(CN6CCN(CC7CCN(c8ccc9c(c8)n(C)c(=O)n9C8CCC(=O)NC8=O)CC7)CC6)CC5)nc4c3F)c12 (stereo not shown) [Compound 15] |  | ≥ 10 | > 100 | 100 to 300 | > 50

Further lines, results first:

DC50 (KRAS G12D; [1]) [nM] | DC50 (KRAS) [nM] | DC50 (KRAS G12V) [nM] | DC50 (KRAS G12D; class symbols) [nM] | Dmax (KRAS G12D; class symbols) [%] | Structure (SMILES)
 | < 1 | < 10 | < 100 |  | CCc1c(F)ccc2cc(O)cc(-c3ncc4c(N5CCC[C@@](C)(O)C5)nc(OC[C@@]56CCCN5[C@H](COC(=O)N5CCC(CN7CCC(Cc8ccc9c(c8)n(C)c(=O)n9C8CCC(=O)NC8=O)CC7)CC5)CC6)nc4c3F)c12 (stereo partly drawn) [Compound 429, ((3S,7aS)-7a-(((7-(8-ethyl-7-fluoro-3-hydroxynaphthalen-1-yl)-8-fluoro-4-((R)-3-hydroxy-3-methylpiperidin-1-yl)pyrido[4,3-d]pyrimidin-2-yl)oxy)methyl)hexahydro-1H-pyrrolizin-3-yl)methyl 4-((4-((1-(2,6-dioxopiperidin-3-yl)-3-methyl-2-oxo-2,3-dihydro-1H-benzo[d]imidazol-5-yl)methyl)piperidin-1-yl)methyl)piperidine-1-carboxylate]
 | 1 to 10 | 10 to 100 | < 100 |  | CCc1c(F)ccc2cc(O)cc(-c3ncc4c(N5CCC[C@@](C)(O)C5)nc(OC[C@@]56CCCN5[C@H](CN5CCC(CN7CCC(c8ccc9c(c8)n(C)c(=O)n9C8CCC(=O)NC8=O)CC7)CC5)CC6)nc4c3F)c12 (stereo partly drawn) [Compound 402, 3-(5-(1-((1-(((35,7aS)-7a-(((7-(8-Ethyl-7-fluoro-3-hydroxynaphthalen-1-yl)-8-fluoro-4-((R)-3-hydroxy-3-methylpiperidin-1-yl)pyrido[4,3-d]pyrimidin-2-yl)oxy)methyl)hexahydro-1H-pyrrolizin-3-yl)methyl)piperidin-4-yl)methyl)piperidin-4-yl)-3-methyl-2-oxo-2,3-dihydro-1H-benzo[d]imidazol-1-yl) piperidine-2,6-dione]
 | < 1 | < 10 | < 100 |  | Cn1c(=O)n(C2CCC(=O)NC2=O)c2ccc(C3CCN(CC4CCN(C(=O)OC[C@@H]5CC[C@]6(COc7nc(N8CCC[C@@](C)(O)C8)c8cnc(-c9cc(O)cc%10ccc(F)c(Cl)c9%10)c(F)c8n7)CCCN56)CC4)CC3)cc21 (stereo partly drawn) [Compound 409, ((3S,7aS)-7a-(((7-(8-chloro-7-fluoro-3-hydroxynaphthalen-1-yl)-8-fluoro-4-((R)-3-hydroxy-3-methylpiperidin-1-yl)pyrido[4,3-d]pyrimidin-2-yl)oxy)methyl)hexahydro-1H-pyrrolizin-3-yl)methyl 4-((4-(1-(2,6-dioxopiperidin-3-yl)-3-methyl-2-oxo-2,3-dihydro-1H-benzo[d]imidazol-5-yl)piperidin-1-yl)methyl)piperidine-1-carboxylate]
 | 1 to 10 | 10 to 100 | < 100 |  | CCc1c(F)ccc2cc(O)cc(-c3ncc4c(N5CCC[C@@](C)(O)C5)nc(OC[C@@]56CCCN5[C@H](COC(=O)N5CCC(N7CCC(Cc8ccc9c(c8)n(C)c(=O)n9C8CCC(=O)NC8=O)CC7)CC5)CC6)nc4c3F)c12 (stereo partly drawn) [Compound 430, ((3S,7aS)-7a-(((7-(8-ethyl-7-fluoro-3-hydroxynaphthalen-1-yl)-8-fluoro-4-((R)-3-hydroxy-3-methylpiperidin-1-yl)pyrido[4,3-d]pyrimidin-2-yl)oxy)methyl)hexahydro-1H-pyrrolizin-3-yl)methyl 4-((1-(2,6-dioxopiperidin-3-yl)-3-methyl-2-oxo-2,3-dihydro-1H-benzo[d]imidazol-5-yl)methyl)-[1,4′-bipiperidine]-1′-carboxylate]
